Source: patent publication US20060008891A1, “Cathepsin G-related peptides as modulators of formylpeptide receptors (FPR)” (The Government of USA as repersented by the Secretary, …, priority 2004, published 2006)
Entries after “also recorded” stand apart in the source; their conditions may differ.

Tests used:
PKCα/β = PKCα/β translocation in ETFR cells; type: cell-based, rat; conditions: 100 nM fMLF, 10 μg/ml CaG or PMA 500 nM, 37° C. 10 min
Protocol: (§1) ETFR cells were seeded on coverslips and cultured overnight in DMEM containing 1% FCS at 37° C. After further culture in FCS-free DMEM for 3 h, cells were treated with stimulants for indicated time periods at 37° C. and were then fixed in 4% paraformaldehyde for 5 min at room temperature. The cells were permeabilized with 0.2% Tween 20 for 30 min at 4° C. and the reaction was blocked with 5% goat normal serum for 15 min at room temperature. The rabbit anti-PKCα/β, δ, and ξ, antibodies (1:1000 in DPBS) were applied separately for 1 h at room temperature. After three rinses with DPBS, the cells were stained with FITC-labeled goat anti-rabbit secondary antibody (PharMingen, 1:1000 in DPBS) for 1 h at room temperature. The coverslips were mounted with an anti-fade, water-based mounting medium with Propidium Iodide (PI) (Vector Lab, Burlingamem, Calif.) and analyzed under a laser scanning confocal fluorescence microscope (Zeiss LSM510 NLO Meta, Jena, Germany). Excitation wavelengths 488 (for FITC) and 568 (for PI) nm were used to generate fluorescence emission in green and red, respectively.

PKCζ = PKCζ translocation in ETFR cells (confocal microscopy); type: cell-based, rat; conditions: 100 nM fMLF, 10 μg/ml CaG or PMA 500 nM, 37° C. 10 min
Protocol: as §1

PKCδ = PKCδ translocation in ETFR cells; type: cell-based, rat; conditions: 100 nM fMLF, 10 μg/ml CaG or PMA 500 nM, 37° C. 10 min
Protocol: as §1, with “The cells were permeabilized with 0.2% Tween 20 for 30 min at 4° C. and the reaction was blocked with 5% goat normal serum for 15 min at room temperature.” left out, “Germany).” for “Germany). Excitation wavelengths 488 (for FITC) and 568 (for PI) nm were used to generate fluorescence emission in green and red, respectively.”

PKC isozymes = assay: PKC translocation in parental RBL cells; type: cell-based, rat; conditions: 100 nM fMLF, 10 μg/ml CaG or PMA 500 nM, 37° C. 10 min
monocytes = assay: Chemotaxis assay, monocytes; type: cell-based, human
Protocol: Human PBMC were isolated from leukopacks obtained through the courtesy of Transfusion Medicine Department, National Institutes of Health Clinical Center (Bethesda, Md.) by Ficoll-Hypaque density gradient centrifugation. Monocytes were purified from human PBMC by Percoll gradient to yield>90% pure preparations. […] H. Ali and R. Snyderman, Duke University (Durham, N.C.) and maintained in the presence of 0.8 mg/ml geneticin (G418, Life Technologies, Rockville, Md.) in DMEM supplemented with 10% FCS. B. Chemotaxis assay Migration of phagocytes and ETFR cells was assessed using a 48-well microchemotaxis chamber (Neuroprobe, Cabin John, Md.) as previously described (Hu et al. (2001) J Leukoc Biol 70 15512). Briefly, different concentrations of stimulants were placed in the wells of the lower compartment of the chamber, and 50 μl cells (1.5×10^6 cells/ml for monocyte and neutrophil, 1×10^6 ETFR cells/ml) were added to the wells of the upper compartment. The lower and upper compartments were separated by either a 5-μm (for monocyte) or a 10-μm pore size, collagen-coated (for ETFR cells) polycarbonate filter (Osmonics, Livermore, Calif.). After incubation at 37° C. in humidified air with 5% CO2 (60 min for neutrophils, 90 min for monocytes, 4.5 h for ETFR cells), the filter was removed and stained, and the cells migrating across the filter were counted with light microscopy. The results are presented as the mean number of cells (±SD) in three high power fields (HPFs). […] After thorough washing with cold medium (RPMI 1640, 1% BSA), the cells were resuspended and assayed. To measure the effect of various signaling inhibitors, unless otherwise indicated, the cells were pre-incubated at 37° C. for 60 min with the inhibitors, and were then added to the upper wells of the chemotaxis chamber.

neutrophils = assay: Chemotaxis assay, neutrophils; type: cell-based, human; conditions: human neutrophils
Protocol: (§2) Human PBMC were isolated from leukopacks obtained through the courtesy of Transfusion Medicine Department, National Institutes of Health Clinical Center (Bethesda, Md.) by Ficoll-Hypaque density gradient centrifugation. Monocytes were purified from human PBMC by Percoll gradient to yield>90% pure preparations. […] H. Ali and R. Snyderman, Duke University (Durham, N.C.) and maintained in the presence of 0.8 mg/ml geneticin (G418, Life Technologies, Rockville, Md.) in DMEM supplemented with 10% FCS. B. Chemotaxis assay Migration of phagocytes and ETFR cells was assessed using a 48-well microchemotaxis chamber (Neuroprobe, Cabin John, Md.) as previously described (Hu et al. (2001) J Leukoc Biol 70 15512). Briefly, different concentrations of stimulants were placed in the wells of the lower compartment of the chamber, and 50 μl cells (1.5×10^6 cells/ml for monocyte and neutrophil, 1×10^6 ETFR cells/ml) were added to the wells of the upper compartment. The lower and upper compartments were separated by either a 5-μm (for monocyte) or a 10-μm pore size, collagen-coated (for ETFR cells) polycarbonate filter (Osmonics, Livermore, Calif.). After incubation at 37° C. in humidified air with 5% CO2 (60 min for neutrophils, 90 min for monocytes, 4.5 h for ETFR cells), the filter was removed and stained, and the cells migrating across the filter were counted with light microscopy. The results are presented as the mean number of cells (±SD) in three high power fields (HPFs). For analysis of cross-desensitization, cells were pretreated with indicated reagents for 1 h at 37° C. After thorough washing with cold medium (RPMI 1640, 1% BSA), the cells were resuspended and assayed. To measure the effect of various signaling inhibitors, unless otherwise indicated, the cells were pre-incubated at 37° C. for 60 min with the inhibitors, and were then added to the upper wells of the chemotaxis chamber.

FPR [1] = biological target: T1, FPR (Homo sapiens, UniProt P21462); assay: Chemotaxis assay, RBL cells transfected with FPR (ETFR cells); type: cell-based; conditions: for inhibition of ETFR cell chemotaxis to CaG: CaG 10 μg/ml; for inhibition of ETFR cell chemotaxis to fMLF: fMLF 100 nM
T1 construct: expressed in transfected cells; host or cells: Rat basophilic leukemia (RBL) cells, stably transfected (ETFR cells); gift of H. Ali and R. Snyderman, Duke University
T1 sequence (P21462 1-350): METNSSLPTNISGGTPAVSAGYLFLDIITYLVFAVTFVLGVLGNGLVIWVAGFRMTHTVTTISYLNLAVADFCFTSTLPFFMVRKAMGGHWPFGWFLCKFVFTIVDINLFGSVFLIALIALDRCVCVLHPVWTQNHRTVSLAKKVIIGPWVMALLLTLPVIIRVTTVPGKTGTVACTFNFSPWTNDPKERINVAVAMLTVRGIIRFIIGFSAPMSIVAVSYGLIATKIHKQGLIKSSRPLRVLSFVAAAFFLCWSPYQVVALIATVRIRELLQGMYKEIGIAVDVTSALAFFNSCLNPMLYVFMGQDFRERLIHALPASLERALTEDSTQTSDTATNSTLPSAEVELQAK
Protocol: as §2

FPR [2] = biological target: T1, FPR; assay: Chemotactic activity for ETFR cells after α1-ACT treatment of stimulants and supernatants; type: cell-based; conditions: α1-ACT 0.75 μM
Protocol: ETFR and RBL cells (10×10^6/ml) were incubated with medium or 10 μg/ml CaG at 37° C. for 1 h. Supernatants were collected and measured for chemotactic activity for un-treated ETFR cells.
as §2
Cleavage by proteases is required for regulation of the function of a number of molecules in triggering proper physiological processes. […] Therefore, we examined whether interaction of FPR with CaG might cleave FPR to generate a new defacto agonist for this receptor, such as in the model of thrombin activation of its receptors. ETFR cells were cultured with CaG under the conditions that are sufficient for cleavage of other proteins by CaG (Kinlough-Rathbone et al. (1999) Thromb Res 95, 31524). The supernatant was collected and examined for its chemotactic activity for FPR. […]

CCCCCCCCCCCCCC(=O)O[C@@H]1[C@@H](C)[C@@]2(O)[C@@H](C=C(CO)C[C@]3(O)C(=O)C(C)=C[C@@H]23)[C@@H]2C(C)(C)[C@]12OC(C)=O [PMA]
translocation of PKCα/β (PKCα/β): activated these PKC isozymes in both ETFR and RBL cells; also recorded: induced translocation of PKCζ, PKCα/β, and PKCδ in ETFR and RBL cells
translocation of PKCζ (PKCζ): activated these PKC isozymes in both ETFR and RBL cells; also recorded: induced translocation of PKCζ, PKCα/β, and PKCδ in ETFR and RBL cells
translocation of PKCδ (PKCδ): induced translocation of PKCζ, PKCα/β, and PKCδ in ETFR and RBL cells
PKC translocation in parental RBL cells (PKC isozymes): activated these PKC isozymes in both ETFR and RBL cells; also recorded: induced translocation of PKCζ, PKCα/β, and PKCδ in ETFR and RBL cells

C/C=C/C[C@@H](C)[C@@H](O)[C@H]1C(=O)N[C@@H](CC)C(=O)N(C)CC(=O)N(C)[C@@H](CC(C)C)C(=O)N[C@@H](C(C)C)C(=O)N(C)[C@@H](CC(C)C)C(=O)N[C@@H](C)C(=O)N[C@H](C)C(=O)N(C)[C@@H](CC(C)C)C(=O)N(C)[C@@H](CC(C)C)C(=O)N(C)[C@H](C(C)C)C(=O)N1C [CsH, Cyclosporin H, reference compound]
inhibition of monocyte chemotaxis to CaG (monocytes; CaG 10 μg/ml): abolished monocyte chemotaxis to CaG and fMLF
inhibition of monocyte chemotaxis to fMLF (monocytes; fMLF 10 nM): abolished monocyte chemotaxis to CaG and fMLF

CN(C)CCCn1cc(C2=C(c3c[nH]c4ccccc34)C(=O)NC2=O)c2ccccc21 [Gö 6850, bisindolylmaleimide I]
inhibition of neutrophil chemotaxis to CaG (neutrophils): did not have any effect
inhibition of neutrophil chemotaxis to IL-8 (neutrophils): did not have any effect
inhibition of neutrophil chemotaxis to fMLF (neutrophils): did not have any effect
inhibition of ETFR cell chemotaxis to CaG (FPR [1]): limited effect on fMLF- and CaG-induced ETFR cell migration
inhibition of ETFR cell chemotaxis to fMLF (FPR [1]): limited effect on fMLF- and CaG-induced ETFR cell migration

CN[C@@H]1C[C@H]2O[C@@](C)([C@@H]1OC)n1c3ccccc3c3c4c(c5c6ccccc6n2c5c31)C(=O)NC4 [Staurosporine, reference compound]
inhibition of ETFR cell chemotaxis to CaG (FPR [1]): abrogated chemotaxis of ETFR cells induced by either CaG or fMLF
inhibition of ETFR cell chemotaxis to fMLF (FPR [1]): abrogated chemotaxis of ETFR cells induced by either CaG or fMLF

B1: α1-ACT: α1-antichymotrypsin, CaG inhibitor (protein, UniProt P01011 24-423, looked up)
Alpha-1-antichymotrypsin: HPNSPLDEENLTQENQDRGTHVDLGLASANVDFAFSLYKQLVLKAPDKNVIFSPLSISTALAFLSLGAHNTTLTEILKGLKFNLTETSEAEIHQSFQHLLRTLNQSSDELQLSMGNAMFVKEQLSLLDRFTEDAKRLYGSEAFATDFQDSAAAKKLINDYVKNGTRGKITDLIKDLDSQTMMVLVNYIFFKAKWEMPFDPQDTHQSRFYLSKKKWVMVPMMSLHHLTIPYFRDEELSCTVVELKYTGNASALFILPDQDKMEEVEAMLLPETLKRWRDSLEFREIGELYLPKFSISRDYNLNDILLQLGIEEAFTSKADLSGITGARNLAVSQVVHKAVLDVFEEGTEASAATAVKITLLSALVETRTIVRFNRPFLMIIVPTDTQNIFFMSKVTNPKQA
effect on chemotactic activity of supernatant from CaG-digested ETFR cells (FPR [2]; 15 min room temperature): completely abolished
effect on chemotactic activity of supernatants from CaG-treated RBL cells (FPR [2]; 15 min room temperature): inhibited by α1-ACT
effect on chemotactic activity of CaG (FPR [2]; CaG 10 μg/ml): significantly reduced chemotactic activity
effect on chemotactic activity of fMLF (FPR [2]; fMLF 100 nM): did not affect the chemotactic activity of fMLF for FPR
